Measured values taken from paper PMC12337082 (Journal of Biochemical and Molecular Toxicology, 2025).

Legend:
[1] = system: MDA‐MB‐231; experiment: Annexin V/PI staining, Tali image‐based cytometry, MDA‐MB‐231; assay type: cell-based, human; settings: MDA‐MB‐231, 24 h
From the text: (§1) To assess apoptosis and cell death, cells were stained with Annexin V‐PI dyes (Tali Apoptosis Kit‐Annexin V Alexa Fluor 488 and PI‐, Molecular Probes A10788, Invitrogen) and quantified using Tali Image‐Based Cytometer (Invitrogen) and fluorescence microscopy (Olympus CKX41 Inverted Phase Contrast Fluorescence Microscope furbished with reflected fluorescence illuminator CKX‐RFA).
(§2) To assess whether our compounds produce their cytotoxic effects through induction of apoptosis, apoptosis was investigated using Annexin V/PI labeling and MMP methods (Figures 4A−C). In addition, by utilizing TALI image‐based cytometry and fluorescent microscopy, the number of cells was analyzed for different concentrations of agents (Table 4).

[2] = system: MCF‐7; experiment: Annexin V/PI staining, Tali image‐based cytometry, MCF‐7; assay type: cell-based, human; settings: MCF‐7, 24 h
From the text: as §1, §2

[3] = system: L‐929; experiment: Mitochondrial membrane potential (JC‐1) apoptosis assay, L‐929; assay type: cell-based, mouse; settings: L‐929, 50 μM, 24 h, MMP assay
Procedure: Apoptosis was also investigated by evaluating mitochondrial membrane potential changes (MMP assay). MCF‐7, MDA‐MB‐231, and L‐929 cells were stained with JC‐1 dye according to the manufacturer's protocols (JC‐1 MMP Assay Kit, KA1324, Abnova). The apoptotic to healthy cell ratio was calculated using absorbances collected from two different fluorescence channels (535/595 for healthy cells, 485/535 for apoptotic cells) (Synergy H1, Biotech Instruments Inc., Vermont, USA).

SMILES: CCc1cccc2c3c([nH]c12)C(CC)(CC(=O)N/N=C/c1ccc(OC)cc1)OCC3 (racemic) [SGK 206, 2‐(1,8‐Diethyl‐1,3,4,9‐tetrahydropyrano[3,4‐b]indole‐1‐yl) acetic acid[(4‐methoxyphenyl)methylene]acetohydrazide]
- Apoptotic cells ([1]; 25 µM): 1%
- Dead cells ([1]; 25 µM): 2%
- Live cells ([1]; 25 µM): 97%
- Apoptotic cells ([1]; 50 µM): 4%
- Dead cells ([1]; 50 µM): 3%
- Live cells ([1]; 50 µM): 93%
- Apoptotic cells ([1]; 75 µM): 8%
- Dead cells ([1]; 75 µM): 25%
- Live cells ([1]; 75 µM): 67%
- Apoptotic cells ([2]; 25 µM): 2%
- Dead cells ([2]; 25 µM): 9%
- Live cells ([2]; 25 µM): 89%
- Apoptotic cells ([2]; 50 µM): 4%
- Dead cells ([2]; 50 µM): 15%
- Live cells ([2]; 50 µM): 81%
- Apoptotic cells ([2]; 75 µM): 19%
- Dead cells ([2]; 75 µM): 19%
- Live cells ([2]; 75 µM): 62%
- Increase in apoptosis compared to the control group [3]: 8%
